In the NIST ThermoML archive (doi:10.1016/j.jct.2014.03.021):

Assay: xn = mol fraction of the nth substance listed
Details: 101 kPa, Liquid; for electrical conductivity: Alternating current cell with electrodes; for speed of sound: Frequency=3 MHz, Sing-around technique in a fixed-path interferometer; for mass density: Vibrating tube method

C[C@H](O)C(=O)[O-].C[N+](C)(C)CCO + O
Details | electrical conductivity [S/m] | mass density [kg/m3] | speed of sound [m/s]
293.15 K, x1 = 0.0258 | 3 | 1036.96 | 1660.5
293.15 K, x1 = 0.0511 | 2.99 | 1063.09 | 1783.4
293.15 K, x1 = 0.074 | 2.55 | 1083.32 | 1872.8
293.15 K, x1 = 0.1027 | 1.91 | 1098.55 | 1930.6
293.15 K, x1 = 0.1443 | – | 1111.86 | 1988.4
293.15 K, x1 = 0.1965 | 0.806 | 1122.77 | 1987.8
293.15 K, x1 = 0.2705 | – | 1132.07 | 1989.4
293.15 K, x1 = 0.2957 | 0.344 | 1133.96 | 1985.2
293.15 K, x1 = 0.3897 | – | 1138.61 | 1975.3
293.15 K, x1 = 0.5347 | 0.079 | 1140.95 | 1955.9
293.15 K, x1 = 0.6044 | 0.059 | 1141.68 | 1952.1
293.15 K, x1 = 0.6931 | 0.037 | 1141.39 | 1942.5
293.15 K, x1 = 0.7565 | – | 1141.84 | 1943.3
293.15 K, x1 = 0.798 | 0.018 | – | –
293.15 K, x1 = 0.8375 | – | 1142.39 | 1942.6
293.15 K, x1 = 0.8996 | 0.01 | 1142.96 | 1938.8
293.15 K, x1 = 0.94 | – | 1143.25 | 1945.2
293.15 K, x1 = 0.9611 | – | 1143.37 | 1944.8
298.15 K, x1 = 0.0258 | 3.35 | 1035.09 | 1665.3
298.15 K, x1 = 0.0511 | 3.42 | 1060.72 | 1781.5
298.15 K, x1 = 0.074 | 2.85 | 1080.6 | 1866
298.15 K, x1 = 0.1027 | 2.29 | 1095.58 | 1920.6
298.15 K, x1 = 0.1443 | – | 1108.71 | 1968.2
298.15 K, x1 = 0.1965 | 1.01 | 1119.53 | 1974.6
298.15 K, x1 = 0.2705 | – | 1128.8 | 1970.9
298.15 K, x1 = 0.2957 | 0.405 | 1130.7 | 1971.5
298.15 K, x1 = 0.3897 | – | 1135.35 | 1957.2
298.15 K, x1 = 0.5347 | 0.108 | 1137.68 | 1941.6
298.15 K, x1 = 0.6044 | 0.089 | 1138.43 | 1937.4
298.15 K, x1 = 0.6931 | 0.046 | 1138.13 | 1927.3
298.15 K, x1 = 0.7565 | – | 1138.58 | 1923.3
298.15 K, x1 = 0.798 | 0.029 | – | –
298.15 K, x1 = 0.8375 | – | 1139.15 | 1922.5
298.15 K, x1 = 0.8996 | 0.017 | 1139.75 | 1922.9
298.15 K, x1 = 0.94 | – | 1140.05 | 1921.7
298.15 K, x1 = 0.9611 | – | 1140.19 | 1919.6
303.15 K, x1 = 0.0258 | 3.68 | 1033.07 | 1669
303.15 K, x1 = 0.0511 | 3.86 | 1058.28 | 1779.1
303.15 K, x1 = 0.074 | 3.23 | 1077.82 | 1858.9
303.15 K, x1 = 0.1027 | 2.57 | 1092.58 | 1910.5
303.15 K, x1 = 0.1443 | – | 1105.56 | 1954.1
303.15 K, x1 = 0.1965 | 1.19 | 1116.28 | 1961.5
303.15 K, x1 = 0.2705 | – | 1125.54 | 1958
303.15 K, x1 = 0.2957 | 0.497 | 1127.45 | 1957.9
303.15 K, x1 = 0.3897 | – | 1132.15 | 1944.6
303.15 K, x1 = 0.5347 | 0.145 | 1134.46 | 1927.8
303.15 K, x1 = 0.6044 | 0.106 | 1135.19 | 1923.5
303.15 K, x1 = 0.6931 | 0.059 | 1134.84 | 1912.9
303.15 K, x1 = 0.7565 | – | 1135.3 | 1909.5
303.15 K, x1 = 0.798 | 0.047 | – | –
303.15 K, x1 = 0.8375 | – | 1135.92 | 1908.6
303.15 K, x1 = 0.8996 | 0.042 | 1136.57 | 1908.1
303.15 K, x1 = 0.94 | – | 1136.9 | 1905.4
303.15 K, x1 = 0.9611 | – | 1137.04 | 1902.3
308.15 K, x1 = 0.0258 | 4 | 1030.91 | 1671.7
308.15 K, x1 = 0.0511 | 4.22 | 1055.74 | 1776
308.15 K, x1 = 0.074 | 3.67 | 1074.99 | 1851.6
308.15 K, x1 = 0.1027 | 2.95 | 1089.55 | 1900.3
308.15 K, x1 = 0.1443 | – | 1102.31 | 1940.6
308.15 K, x1 = 0.1965 | 1.44 | 1113.02 | 1948.6
308.15 K, x1 = 0.2705 | – | 1122.29 | 1945.2
308.15 K, x1 = 0.2957 | 0.622 | 1124.2 | 1944.6
308.15 K, x1 = 0.3897 | – | 1129.04 | 1932
308.15 K, x1 = 0.5347 | 0.194 | 1131.34 | 1914.3
308.15 K, x1 = 0.6044 | 0.138 | 1132.01 | 1909.9
308.15 K, x1 = 0.6931 | 0.073 | 1131.57 | 1899
308.15 K, x1 = 0.7565 | – | 1132.02 | 1896.1
308.15 K, x1 = 0.798 | 0.053 | – | –
308.15 K, x1 = 0.8375 | – | 1132.67 | 1895.2
308.15 K, x1 = 0.8996 | 0.056 | 1133.39 | 1894
308.15 K, x1 = 0.94 | – | 1133.76 | 1890.3
308.15 K, x1 = 0.9611 | – | 1133.93 | 1886.6
313.15 K, x1 = 0.0258 | 4.38 | 1028.62 | 1673.4
313.15 K, x1 = 0.0511 | 4.67 | 1053.12 | 1772.3
313.15 K, x1 = 0.074 | 4.09 | 1072.09 | 1843.8
313.15 K, x1 = 0.1027 | 3.31 | 1086.48 | 1890.1
313.15 K, x1 = 0.1443 | – | 1099.08 | 1927.4
313.15 K, x1 = 0.1965 | 1.65 | 1109.75 | 1935.7
313.15 K, x1 = 0.2705 | – | 1118.95 | 1932.5
313.15 K, x1 = 0.2957 | 0.735 | 1120.95 | 1931.4
313.15 K, x1 = 0.3897 | – | 1125.94 | 1919.3
313.15 K, x1 = 0.5347 | 0.234 | 1128.21 | 1901
313.15 K, x1 = 0.6044 | 0.169 | 1128.91 | 1896.5
313.15 K, x1 = 0.6931 | 0.103 | 1128.31 | 1885.6
313.15 K, x1 = 0.7565 | – | 1128.77 | 1883
313.15 K, x1 = 0.798 | 0.069 | – | –
313.15 K, x1 = 0.8375 | – | 1129.44 | 1882.1
313.15 K, x1 = 0.8996 | 0.071 | 1130.23 | 1880.5
313.15 K, x1 = 0.94 | – | 1130.63 | 1876.1
313.15 K, x1 = 0.9611 | – | 1130.81 | 1872
318.15 K, x1 = 0.0258 | 4.99 | 1026.22 | 1674
318.15 K, x1 = 0.0511 | 5.07 | 1050.42 | 1768.1
318.15 K, x1 = 0.074 | 4.55 | 1069.15 | 1835.9
318.15 K, x1 = 0.1027 | 3.83 | 1083.38 | 1879.8
318.15 K, x1 = 0.1443 | – | 1095.34 | 1914.8
318.15 K, x1 = 0.1965 | 1.92 | 1106.48 | 1922.8
318.15 K, x1 = 0.2705 | – | 1115.26 | 1919.8
318.15 K, x1 = 0.2957 | 0.898 | 1117.03 | 1918.3
318.15 K, x1 = 0.3897 | – | 1122.53 | 1906.8
318.15 K, x1 = 0.5347 | 0.262 | 1125.08 | 1888
318.15 K, x1 = 0.6044 | 0.197 | 1125.81 | 1883.5
318.15 K, x1 = 0.6931 | 0.118 | 1125 | 1872.5
318.15 K, x1 = 0.7565 | – | 1125.55 | 1870.1
318.15 K, x1 = 0.798 | 0.103 | – | –
318.15 K, x1 = 0.8375 | – | 1126.28 | 1869.1
318.15 K, x1 = 0.8996 | 0.084 | 1127.07 | 1867.3
318.15 K, x1 = 0.94 | – | 1127.56 | 1862.4
318.15 K, x1 = 0.9611 | – | 1127.75 | 1858
323.15 K, x1 = 0.0258 | 5.23 | 1023.68 | 1673.8
323.15 K, x1 = 0.0511 | 5.47 | 1047.63 | 1763.2
323.15 K, x1 = 0.074 | 5.09 | 1066.16 | 1827.6
323.15 K, x1 = 0.1027 | 4.26 | 1080.24 | 1869.2
323.15 K, x1 = 0.1443 | – | 1092.47 | 1907
323.15 K, x1 = 0.1965 | 2.18 | 1103.2 | 1910
323.15 K, x1 = 0.2705 | – | 1112.52 | 1911.6
323.15 K, x1 = 0.2957 | 1.01 | 1114.46 | 1905.2
323.15 K, x1 = 0.3897 | – | 1119.8 | 1898.7
323.15 K, x1 = 0.5347 | 0.318 | 1121.95 | 1875
323.15 K, x1 = 0.6044 | 0.235 | 1122.71 | 1870.6
323.15 K, x1 = 0.6931 | 0.151 | 1121.7 | 1859.6
323.15 K, x1 = 0.7565 | – | 1122.21 | 1863
323.15 K, x1 = 0.798 | 0.134 | – | –
323.15 K, x1 = 0.8375 | – | 1123.02 | 1861.8
323.15 K, x1 = 0.8996 | 0.144 | 1123.98 | 1854.4
323.15 K, x1 = 0.94 | – | 1124.48 | 1854.3
323.15 K, x1 = 0.9611 | – | 1124.69 | 1849.7
